SMILES strings stand for the structures.

T1 sequence (Z9B3F0ZFT1 1-278 limits assumed): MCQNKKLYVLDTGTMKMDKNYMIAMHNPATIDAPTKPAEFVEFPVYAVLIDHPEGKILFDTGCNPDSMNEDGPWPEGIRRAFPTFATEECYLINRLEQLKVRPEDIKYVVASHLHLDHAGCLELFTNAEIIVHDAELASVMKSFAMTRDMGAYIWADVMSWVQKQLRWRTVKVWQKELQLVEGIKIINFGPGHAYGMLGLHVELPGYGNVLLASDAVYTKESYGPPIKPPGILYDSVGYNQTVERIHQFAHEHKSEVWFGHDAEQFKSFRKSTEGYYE

This test concerns the target T1, AiiK (Kurthia huakuii, UniProt Z9B3F0ZFT1).
T1 construct: primer-encoded N-terminus MCQNKKLY
As to the kind of experiment: HPLC of remaining AHL at […] nm, Michaelis-Menten fit. The format is biochemical. Particulars: 10 mM PBS pH 7.4, 25 °C, 10 min, 4 μg/mL enzyme, 25–150 μM substrate; unit given as mM^−1 in the source; unit of the source corrected.
Consider `CCCC(=O)CC(=O)N[C@H]1CCOC1=O` [3-Oxo-C6-HSL], for which the Mean ± SD / Km(mM^-1) stood at 0.066 ± 0.02 mM. Then `CCCCCC(=O)N[C@H]1CCOC1=O` [C6-HSL], with 0.204 ± 0.031 mM.

Take `CCCCCCCCCC(=O)N[C@H]1CCOC1=O` [C10-HSL]: the Mean ± SD / Km(mM^-1) came out at 0.315 ± 0.065 mM.

Turning to `CCCCCCCCCCCCCC(=O)N[C@H]1CCOC1=O` [C14-HSL], the Mean ± SD / Km(mM^-1) turned out to be 0.036 ± 0.004 mM.

Source of the values: publication PMC5902575, “Characterization of AiiK, an AHL lactonase, from Kurthia huakui LAM0618^T and its application in quorum quenching on Pseudomonas aeruginosa PAO1” (Scientific Reports, 2018).
